One data set is described as follows: Hypervitamin A toxicity. The note with it: result in words.
The next data set relates to L1210 cell line. As to the kind of experiment: Growth inhibition of cell line L1210 (tritiated thymidine incorporation). The data set is classed as cell-based, mice. The note with it: Mus musculus, L1210, 24 hours, read-out: IC50, concentration that inhibits cell growth by 50%. As to the method: The growth of this leukaemia cell line in mice is assessed by the capacity of the cells to incorporate tritiated thymidine. The rate of incorporation is measured 24 hours after the introduction of the test compound into the culture medium.
Table V lists, for each compound, the concentration that inhibits cell growth by 50%.

In a further data set the test system is HL-60 cells. As to the kind of experiment: Cell differentiation of HL-60 cells (NBT reduction). The data set is classed as cell-based, human. The note with it: HL-60, 20 μM, six days. As to the method:
The cell differentiation is determined according to the method of J. M. GALLUP and al. (Proceedings of the Society for Experimental Biology and Medecine, 186, 269-274, 1987).
HL-60 cells (human promyclocyte) (2×10^5 cells/ml) are incubated during six days with the tested compounds. An aliquot (0,5 ml) of cells is than incubated with 0,5 ml of a 0,2% NBT (Nitroblue Tetrazolium) solution and […] of PMA (phorbol ester) for 20 min at 37° C.
Cells are washed with PBS and numbered under microscope, Table VII lists the percentage of cells containing cristals of reduced NBT (i,e, % of positive NBT cells) at the concentration of 20 μM.

For data set [1] the following is noted: patent EP 237166; isolated from an alga; cited from earlier work.
In the next data set the test system is colon C38 adenocarcinoma. As to the kind of experiment: Anti-tumour activity on colon C38 adenocarcinoma in vivo. The note with it: colon 38 fragment s.c.; i.p. on 2nd and 4th days after implantation; day 20. Further details: species or system mice. As to the method: After subcutaneous implantation of a fragment of tumour (colon 38) in the axillary region, on the 2nd and 4th days after implantation a solution of the test compound is administered to a group of animals by the intraperitoneal route. On the 20th day the animals are sacrificed and the tumour volume is ascertained.
The % T/C ratio is calculated as follows: [formula]

For `CC1=C(/C=C/C(C)=C/C=C/C(C)=C/C(=O)O)C(C)(C)CCC1` [Retinoic acid, reference compound], in “Hypervitamin A toxicity”, the “Hypervitamin A toxicity” value was “causing hypervitamin A toxicity”. Further, the IC50 in the data set with L1210 cell line was 20.1 µM. Take `C=CCc1cccc2c(=O)cc(/C=C/c3ccccc3)oc12` [Example 18, 8-Allyl-2-Styryl-4H-1-Benzopyran-4-One]: the IC50 in the data set on L1210 cell line turned out to be 5.85 µM. As to `Cc1c(/C=C/c2ccccc2)oc2c(C)cccc2c1=O` [Example 17, 3,8-Dimethyl-2-Styryl-4H-1-Benzopyran-4-One], the IC50 in the data set on L1210 cell line stood at 7.5 µM. Regarding `C=CCc1cccc2c(=O)c(C)c(/C=C/c3ccccc3)oc12` [Example 19, 8-Allyl-3-Methyl-2-Styryl-4H-1-Benzopyran-4-One], the “% of positive NBT cells” value with HL-60 cells came to 45%. In addition, in the data set on L1210 cell line, the IC50 worked out at 6.6 µM. Turning to hormo-thamnione, the Cytotoxic properties result in data set [1] is “cytotoxic properties”.

As for `COC(=O)c1c(OC)cc2oc(/C=C/c3ccc(OC)c(OC)c3)cc(=O)c2c1OC` [Example 2, Methyl 5,7-Dimethoxy-4-Oxo-2-(3,4-Dimethoxy-Styryl) -4H-1-Benzopyran-6-Carboxylate], in the data set on colon C38 adenocarcinoma, the T/C % amounted to 35% and the “Tumour volume after 20 days” value is 356 mm3. Moreover, the “% of positive NBT cells” value in the data set on HL-60 cells is 85%. In the data set with L1210 cell line, the IC50 worked out at 6.4 µM.

`COC(=O)c1ccc(/C=C/c2cc(=O)c3c(OC)c(C(=O)OC)c(OC)cc3o2)cc1` [Example 4, Methyl 5,7-Dimethoxy-2-(4-Methoxycarbonyl-Styryl)-4H -1-Benzopyran-6-Carboxylate]: the IC50 with L1210 cell line stood at 12 µM. Turning to `COC(=O)c1c(OC)cc2oc(/C=C/c3ccccc3)cc(=O)c2c1OC` [Example 1, Methyl 5,7-Dimethoxy-4-Oxo-2-Styryl-4H-1-Benzopyran-6-Carboxylate], in the data set with colon C38 adenocarcinoma, the T/C % is 56% and the “Tumour volume after 20 days” value is on record as 573 mm3. Besides, the “% of positive NBT cells” value with HL-60 cells was found to be 52%. The IC50 with L1210 cell line is 12.5 µM.

For `COc1ccc(/C=C/c2cc(=O)c3c(OC)c4ccoc4cc3o2)cc1OC` [Example 7, 4-Methoxy-7-(3,4-Dimethoxystyryl)-5H -Furo[3,2-g]Benzopyran-5-One], the IC50 in the data set on L1210 cell line is 8.5 µM. On to `CCCc1cccc2c(=O)cc(/C=C/c3ccccc3)oc12` [Example 21, 8-Propyl-2-Styryl-4H-1-Benzopyran-4-One], for which the IC50 in the data set on L1210 cell line turned out to be 7.25 µM. Regarding `COC(=O)c1c(OC)cc2oc(/C=C/c3cc(OC)c(OC)c(OC)c3)cc(=O)c2c1OC` [Example 3, Methyl 5,7-Dimethoxy-4-Oxo-2-(3,4,5-Tri-Methoxystyryl) -4H-1-Benzopyran-6-Carboxylate], the “% of positive NBT cells” value with HL-60 cells turned out to be 59%. In addition, the IC50 in the data set with L1210 cell line amounted to 5 µM.

Turning to `C=CCc1cc(OC)cc2c(=O)cc(/C=C/c3ccccc3)oc12` [Example 20, 6-Methoxy-8-Allyl-2-Styryl-4H-1-Benzopyran-4-One], the IC50 in the data set on L1210 cell line stood at 3 µM.

Values taken from patent publication US5409952A, “Heterocyclic compounds: 2-styryl-4H-1-benzopyran-4-ones” (Adir et Compagnie, priority 1990, dated 1995).
